The target of experiment [1] is Phospholipase A2 (Homo sapiens, UniProt P04054). Format: functional.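 Also: confirmatory dose-response counterscreen on phospholipase A2, testing hits that came from an ultra-high-throughput screen for ATG4B inhibitors.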
Experiment [2] addresses Cysteine protease ATG4B (Homo sapiens, UniProt Q9Y4P1). In kind it is functional.
A short description of experiment [3]: inhibitors of intracellular T. cruzi replication, confirmation, NIH3T3 host cells, beta-gal luminescence (AID 2044).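 Also: intracellular parasites grown in NIH/3T3 mouse fibroblasts as host cells; luminescent beta-galactosidase reporter signal from transgenic T. cruzi replicating inside host cells; inhibitors lower the luminescence signal.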 In kind it is functional, cell-based.
Experiment [4] can be described thus: cytotoxicity toward NIH3T3 fibroblasts, dose response, counter-screen, cell-based, ATP luminescence, mouse fibroblasts (AID 2010).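 Also: cells exposed to compound for about 90 hours before reading.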 In kind it is functional.
The nature of experiment [5]: cytotoxicity in HMLE control line with eGFP shRNA, dose response, counter-screen for HMLE_sh_ECad selective toxicity project, cell-based, HMLE_sh_eGFP, luminescence (AID 463074).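 Also: HMLE human mammary epithelial cells expressing control shRNA against eGFP.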 In kind it is functional, Homo sapiens.
The nature of experiment [6]: Luminescence Cell-Based Dose Retest to Confirm Inhibitors of Cancer Stem Cells. [Related pubchem assays (depositor defined):AID2717, AID2721]. Conditions: Homo sapiens. Format: functional.
For experiment [7], the target named is T1, Bifunctional protein GlmU (Mycobacterium tuberculosis, UniProt P9WMN3).
T1 sequence (P9WMN3 whole entry): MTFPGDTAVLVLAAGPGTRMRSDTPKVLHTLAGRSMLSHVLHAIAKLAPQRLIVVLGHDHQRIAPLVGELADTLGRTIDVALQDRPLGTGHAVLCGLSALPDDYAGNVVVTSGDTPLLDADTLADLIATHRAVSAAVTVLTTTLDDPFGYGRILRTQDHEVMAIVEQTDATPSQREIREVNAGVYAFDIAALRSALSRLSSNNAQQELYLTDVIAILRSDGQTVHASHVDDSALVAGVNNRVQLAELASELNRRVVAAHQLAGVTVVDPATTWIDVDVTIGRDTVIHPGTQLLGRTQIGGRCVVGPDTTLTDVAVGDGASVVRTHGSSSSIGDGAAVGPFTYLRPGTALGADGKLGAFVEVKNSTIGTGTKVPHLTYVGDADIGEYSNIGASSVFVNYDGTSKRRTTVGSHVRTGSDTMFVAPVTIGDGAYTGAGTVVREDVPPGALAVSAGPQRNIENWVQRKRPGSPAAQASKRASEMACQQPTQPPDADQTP
In words: Inhibitors of Mycobacterial Glucosamine-1-phosphate acetyl transferase (GlmU). Secondary screen. Also on record: species or system Mycobacterium tuberculosis H37Rv.

In experiment [8] the target is T2, Polyadenylate-binding protein 1 (Homo sapiens, UniProt P11940). In words: PABP1 MLLE–PAM2 interaction inhibitors, dose response, miRNA deadenylation inhibitor project, biochemical, fluorescence polarization, Cy5-PAM2 peptide, secondary (AID 602260). In kind it is functional. Conditions: read-out: IC50_Mean.
T2 sequence (P11940 whole entry): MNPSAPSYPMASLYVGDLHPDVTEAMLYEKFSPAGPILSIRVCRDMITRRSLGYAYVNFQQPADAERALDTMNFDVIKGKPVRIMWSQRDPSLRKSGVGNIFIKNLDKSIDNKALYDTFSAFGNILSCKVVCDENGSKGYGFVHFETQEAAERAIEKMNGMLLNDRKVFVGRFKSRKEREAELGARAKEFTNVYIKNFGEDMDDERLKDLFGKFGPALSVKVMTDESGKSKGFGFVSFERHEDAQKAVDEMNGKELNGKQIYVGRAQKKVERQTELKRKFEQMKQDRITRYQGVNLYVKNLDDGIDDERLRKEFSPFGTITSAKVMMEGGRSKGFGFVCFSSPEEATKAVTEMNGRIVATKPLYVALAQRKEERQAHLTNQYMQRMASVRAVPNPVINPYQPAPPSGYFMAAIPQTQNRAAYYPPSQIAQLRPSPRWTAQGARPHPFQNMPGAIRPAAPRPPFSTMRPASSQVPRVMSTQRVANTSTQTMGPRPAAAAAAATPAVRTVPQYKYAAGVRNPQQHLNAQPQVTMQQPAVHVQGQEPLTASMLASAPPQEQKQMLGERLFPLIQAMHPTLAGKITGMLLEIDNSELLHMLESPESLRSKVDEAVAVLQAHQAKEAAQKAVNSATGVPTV
The target in experiment [9] is Induced myeloid leukemia cell differentiation protein Mcl-1 (Homo sapiens, UniProt Q07820). In kind it is functional.
Sequence of Induced myeloid leukemia cell differentiation protein Mcl-1 (Q07820 whole entry): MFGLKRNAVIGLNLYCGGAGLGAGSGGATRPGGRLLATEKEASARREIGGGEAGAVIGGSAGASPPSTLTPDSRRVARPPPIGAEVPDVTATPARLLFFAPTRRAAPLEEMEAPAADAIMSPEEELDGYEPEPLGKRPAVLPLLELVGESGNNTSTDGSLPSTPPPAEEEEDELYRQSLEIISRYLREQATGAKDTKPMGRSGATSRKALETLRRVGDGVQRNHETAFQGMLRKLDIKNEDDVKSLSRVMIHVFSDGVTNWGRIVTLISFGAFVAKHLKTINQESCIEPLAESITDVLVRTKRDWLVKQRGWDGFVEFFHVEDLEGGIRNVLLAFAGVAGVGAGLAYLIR
Experiment [10] concerns the target T2, Polyadenylate-binding protein 1. Briefly: PABP1 MLLE–PAM2 binding inhibitor potency, dose response, biochemical, fluorescence polarization, FITC-PAM2 peptide (AID 602259). Conditions: read-out: IC50_Mean. In kind it is functional.
The target in experiment [11] is Dual specificity protein kinase CLK1 (Homo sapiens, UniProt P49759). Briefly: CLK1 kinase inhibitors, off-target check, dose response, selectivity assay for Dyrk1A inhibitor project, biochemical, cherry-picked samples (AID 588811).
Sequence of Dual specificity protein kinase CLK1 (P49759 whole entry): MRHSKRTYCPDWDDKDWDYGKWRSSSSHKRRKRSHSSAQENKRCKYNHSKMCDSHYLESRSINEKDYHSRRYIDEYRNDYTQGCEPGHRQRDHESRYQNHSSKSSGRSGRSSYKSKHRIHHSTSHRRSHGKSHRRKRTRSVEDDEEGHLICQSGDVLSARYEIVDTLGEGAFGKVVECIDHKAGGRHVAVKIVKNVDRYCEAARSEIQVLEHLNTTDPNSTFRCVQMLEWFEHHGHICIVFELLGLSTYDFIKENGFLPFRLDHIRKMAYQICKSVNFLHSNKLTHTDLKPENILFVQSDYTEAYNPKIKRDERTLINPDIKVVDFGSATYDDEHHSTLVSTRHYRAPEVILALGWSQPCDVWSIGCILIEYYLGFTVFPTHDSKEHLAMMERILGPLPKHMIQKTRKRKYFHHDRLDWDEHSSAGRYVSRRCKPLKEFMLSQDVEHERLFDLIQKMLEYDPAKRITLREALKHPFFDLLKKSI
In experiment [12] the target is T3, Beta-adrenergic receptor kinase 1 (Homo sapiens, UniProt P25098).
T3 sequence (P25098 whole entry): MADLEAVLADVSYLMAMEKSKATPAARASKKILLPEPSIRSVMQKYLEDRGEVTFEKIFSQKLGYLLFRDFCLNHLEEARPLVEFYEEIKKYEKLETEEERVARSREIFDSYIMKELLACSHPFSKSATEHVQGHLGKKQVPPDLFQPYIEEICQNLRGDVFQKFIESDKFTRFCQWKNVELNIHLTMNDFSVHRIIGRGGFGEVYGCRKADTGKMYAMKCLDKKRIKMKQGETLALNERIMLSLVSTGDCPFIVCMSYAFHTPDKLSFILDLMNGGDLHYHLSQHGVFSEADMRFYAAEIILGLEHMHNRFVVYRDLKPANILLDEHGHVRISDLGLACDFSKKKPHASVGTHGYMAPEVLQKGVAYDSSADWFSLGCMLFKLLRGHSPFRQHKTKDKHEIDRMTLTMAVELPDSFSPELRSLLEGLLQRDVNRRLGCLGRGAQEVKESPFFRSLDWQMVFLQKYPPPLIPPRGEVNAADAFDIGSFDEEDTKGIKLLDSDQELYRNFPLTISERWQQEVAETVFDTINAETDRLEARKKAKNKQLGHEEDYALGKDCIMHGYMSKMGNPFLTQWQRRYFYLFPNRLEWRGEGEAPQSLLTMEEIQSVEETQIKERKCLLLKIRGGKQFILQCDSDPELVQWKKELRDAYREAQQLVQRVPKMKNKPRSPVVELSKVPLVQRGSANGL
Briefly: aptamer displacement from bead-bound GRK2 – biochemical, cherry pick 1, bead flow cytometry, dose response (AID 504500).

Experiment [13] has as its target Apoptotic protease-activating factor 1 (Homo sapiens, UniProt O14727). In words: activation of Apaf-1 mediated apoptosis – fluorescent, uHTS hits, dose response (AID 588554). In kind it is functional.
Experiment [14] deals with T4, Estrogen receptor (Homo sapiens, UniProt P03372).
T4 sequence (P03372 whole entry): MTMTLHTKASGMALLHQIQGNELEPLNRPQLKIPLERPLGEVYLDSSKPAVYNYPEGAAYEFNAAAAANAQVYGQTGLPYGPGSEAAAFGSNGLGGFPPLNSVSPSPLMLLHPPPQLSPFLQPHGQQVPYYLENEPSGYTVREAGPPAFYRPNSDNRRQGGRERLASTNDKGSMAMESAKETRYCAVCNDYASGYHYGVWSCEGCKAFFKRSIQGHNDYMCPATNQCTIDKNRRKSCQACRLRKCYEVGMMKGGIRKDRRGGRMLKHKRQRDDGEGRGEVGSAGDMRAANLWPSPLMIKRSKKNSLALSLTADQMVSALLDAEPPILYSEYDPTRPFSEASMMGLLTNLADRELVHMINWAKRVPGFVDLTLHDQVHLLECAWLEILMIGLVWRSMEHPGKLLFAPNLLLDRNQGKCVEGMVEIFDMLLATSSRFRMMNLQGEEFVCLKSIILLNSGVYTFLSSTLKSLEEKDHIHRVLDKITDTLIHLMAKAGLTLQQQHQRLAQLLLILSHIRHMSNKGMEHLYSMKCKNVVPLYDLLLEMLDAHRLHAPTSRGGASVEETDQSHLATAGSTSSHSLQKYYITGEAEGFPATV

Experiment [15] deals with Sphingosine 1-phosphate receptor 4 (Homo sapiens, UniProt O95977). Briefly: Fluorescence dose response cell-based high throughput screening assay for agonists of the Sphingosine 1-Phosphate Receptor 4 (S1P4). [Related pubchem assays: 1509 (Primary screen.), 1523 (Confirmation screen in triplicates.)]. Format: functional.
Sequence of Sphingosine 1-phosphate receptor 4 (O95977 whole entry): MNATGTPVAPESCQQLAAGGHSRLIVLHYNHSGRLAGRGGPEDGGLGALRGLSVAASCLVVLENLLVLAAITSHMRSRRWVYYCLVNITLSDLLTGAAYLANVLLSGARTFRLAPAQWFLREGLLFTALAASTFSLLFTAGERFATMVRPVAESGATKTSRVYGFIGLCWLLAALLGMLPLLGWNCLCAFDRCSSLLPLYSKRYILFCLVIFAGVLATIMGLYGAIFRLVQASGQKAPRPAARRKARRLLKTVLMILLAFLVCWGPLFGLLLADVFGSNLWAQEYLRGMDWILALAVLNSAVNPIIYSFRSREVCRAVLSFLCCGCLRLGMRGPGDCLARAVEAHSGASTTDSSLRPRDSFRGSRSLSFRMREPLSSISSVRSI
The nature of experiment [16]: Luminescence Cell-Based Dose Confirmation HTS to Identify Inhibitors of Platelet Dense Granule Release. [Related pubchem assays: 1663 (Primary HTS), 1678 (Summary of Project)]. Format: functional.
For experiment [17], the target named is Sphingosine 1-phosphate receptor 1 (Homo sapiens, UniProt P21453). In words: Fluorescence-based counterscreen assay for S1P4 agonists: Cell-based dose response high throughput screening assay to identify agonists of the Sphingosine 1-Phosphate Receptor 1 (S1P1). [Related pubchem assays (depositor defined):AID1509, AID1523, AID1801, AID463107, AID463118, AID463119, AID463122, AID463123, AID463129, AID463225, AID504400, AID504460]. Format: functional.
Sequence of Sphingosine 1-phosphate receptor 1 (P21453 whole entry): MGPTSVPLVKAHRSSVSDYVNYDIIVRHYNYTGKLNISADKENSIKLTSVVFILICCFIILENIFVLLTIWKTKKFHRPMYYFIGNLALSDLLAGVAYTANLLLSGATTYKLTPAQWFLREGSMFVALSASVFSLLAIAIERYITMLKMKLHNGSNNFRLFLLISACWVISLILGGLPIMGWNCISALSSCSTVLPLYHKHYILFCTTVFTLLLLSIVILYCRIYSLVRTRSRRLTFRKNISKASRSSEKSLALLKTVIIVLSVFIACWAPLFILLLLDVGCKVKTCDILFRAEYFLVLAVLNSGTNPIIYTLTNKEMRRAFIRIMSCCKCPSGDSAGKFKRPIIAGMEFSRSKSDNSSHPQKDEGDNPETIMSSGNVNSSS

Experiment [18] deals with Sphingosine 1-phosphate receptor 2 (Homo sapiens, UniProt O95136). Briefly: Dose Response Cell Based Assay for Agonists of the S1P2 Receptor. [Related pubchem assays: 729, 736, 843 ]. Format: functional.
Sequence of Sphingosine 1-phosphate receptor 2 (O95136 whole entry): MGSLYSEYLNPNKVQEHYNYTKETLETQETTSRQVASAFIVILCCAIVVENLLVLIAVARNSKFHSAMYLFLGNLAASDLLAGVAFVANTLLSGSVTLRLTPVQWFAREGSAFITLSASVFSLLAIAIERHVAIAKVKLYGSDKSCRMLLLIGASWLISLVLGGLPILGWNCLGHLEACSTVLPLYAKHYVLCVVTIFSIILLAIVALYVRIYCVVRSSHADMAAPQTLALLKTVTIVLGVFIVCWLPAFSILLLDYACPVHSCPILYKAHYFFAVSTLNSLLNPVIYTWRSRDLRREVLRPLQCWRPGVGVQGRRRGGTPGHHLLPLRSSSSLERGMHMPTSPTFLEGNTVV
Experiment [19] deals with T5, Estrogen receptor beta (Homo sapiens, UniProt Q92731). In words: ERβ–SRC-3 coactivator interaction inhibitors, confirmation, orthogonal assay, biochemical, ELISA, streptavidin-HRP readout (AID 1060).
T5 sequence (Q92731 whole entry): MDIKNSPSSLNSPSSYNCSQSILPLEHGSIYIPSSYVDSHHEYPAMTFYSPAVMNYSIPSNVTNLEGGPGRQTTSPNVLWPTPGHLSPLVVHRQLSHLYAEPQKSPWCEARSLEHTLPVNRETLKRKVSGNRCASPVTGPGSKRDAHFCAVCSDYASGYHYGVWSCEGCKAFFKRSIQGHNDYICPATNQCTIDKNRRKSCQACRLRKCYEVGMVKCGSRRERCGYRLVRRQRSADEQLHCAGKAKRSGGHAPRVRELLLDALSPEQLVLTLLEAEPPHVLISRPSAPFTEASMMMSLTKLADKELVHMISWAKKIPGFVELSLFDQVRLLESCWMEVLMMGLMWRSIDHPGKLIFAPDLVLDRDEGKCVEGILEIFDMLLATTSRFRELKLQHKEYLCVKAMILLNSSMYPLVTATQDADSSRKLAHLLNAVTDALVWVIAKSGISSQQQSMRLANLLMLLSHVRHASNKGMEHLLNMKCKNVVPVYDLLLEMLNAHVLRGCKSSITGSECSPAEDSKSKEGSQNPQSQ
The target of experiment [20] is T5, Estrogen receptor beta.
Experiment [21] relates to Streptococcus sp. 'group A'. Briefly: growth inhibition of control SK(-) GAS strain, dose response, counter-screen for streptokinase expression inhibitor project, luminescence, kanamycin, BacTiterGlo, confirmation (AID 1900). In kind it is functional, organism-based.
Experiment [22] has as its system Streptococcus. Briefly: Group A Streptococcus viability loss, dose response, counter-screen for streptokinase expression inhibitor project, luminescence, BacTiterGlo (AID 1915).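 Also: potency for reduction of bacterial viability or growth.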 In kind it is functional, organism-based.
The target in experiment [23] is Luciferin 4-monooxygenase (Photinus pyralis, UniProt P08659). In words: firefly luciferase enzyme inhibitors, dose response, biochemical, luminescence (AID 1891).
Sequence of Luciferin 4-monooxygenase (P08659 whole entry): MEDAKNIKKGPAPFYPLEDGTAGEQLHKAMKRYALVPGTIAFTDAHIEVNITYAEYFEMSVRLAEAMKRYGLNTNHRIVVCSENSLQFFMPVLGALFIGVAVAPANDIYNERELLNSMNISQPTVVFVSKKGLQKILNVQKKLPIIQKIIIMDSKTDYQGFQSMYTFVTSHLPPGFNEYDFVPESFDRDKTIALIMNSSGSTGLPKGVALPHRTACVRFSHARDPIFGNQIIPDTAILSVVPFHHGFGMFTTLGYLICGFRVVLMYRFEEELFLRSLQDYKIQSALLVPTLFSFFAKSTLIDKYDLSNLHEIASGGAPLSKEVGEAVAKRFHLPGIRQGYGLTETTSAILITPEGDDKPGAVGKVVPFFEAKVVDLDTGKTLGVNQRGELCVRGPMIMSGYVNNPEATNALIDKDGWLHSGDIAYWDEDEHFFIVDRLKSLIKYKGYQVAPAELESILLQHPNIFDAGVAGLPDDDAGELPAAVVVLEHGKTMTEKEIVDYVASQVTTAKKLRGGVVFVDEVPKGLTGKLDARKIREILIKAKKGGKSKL
In experiment [24] the target is T6, Streptokinase A (Streptococcus pyogenes serotype M1, UniProt P10520).
T6 sequence (P10520 whole entry): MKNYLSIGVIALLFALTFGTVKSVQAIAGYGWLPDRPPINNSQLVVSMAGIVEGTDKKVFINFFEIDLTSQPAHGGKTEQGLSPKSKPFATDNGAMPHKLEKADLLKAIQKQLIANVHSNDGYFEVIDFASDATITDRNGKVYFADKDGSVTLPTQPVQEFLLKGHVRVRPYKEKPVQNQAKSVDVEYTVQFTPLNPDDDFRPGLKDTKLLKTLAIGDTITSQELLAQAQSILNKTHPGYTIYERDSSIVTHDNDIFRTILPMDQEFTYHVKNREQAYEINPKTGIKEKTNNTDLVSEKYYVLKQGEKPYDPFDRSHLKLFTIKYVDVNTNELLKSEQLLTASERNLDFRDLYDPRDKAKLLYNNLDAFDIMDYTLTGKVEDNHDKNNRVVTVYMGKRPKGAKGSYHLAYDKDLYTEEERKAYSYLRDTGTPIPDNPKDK
In words: S. pyogenes streptokinase expression inhibitors, potency, dose response, plasminogen activation absorbance, OD405 (AID 1914).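 Also: secreted streptokinase activity via plasminogen activation per viability signal from cell pellet.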 Format: functional, Streptococcus pyogenes M1 GAS.

For experiment [25], the target named is CAAX prenyl protease 1 (Saccharomyces cerevisiae S288c, UniProt P47154). Briefly: Ste24 protease inhibitors, dose response, biochemical, S. cerevisiae, plate reader, cherry-pick (AID 488815).
Sequence of CAAX prenyl protease 1 (P47154 whole entry): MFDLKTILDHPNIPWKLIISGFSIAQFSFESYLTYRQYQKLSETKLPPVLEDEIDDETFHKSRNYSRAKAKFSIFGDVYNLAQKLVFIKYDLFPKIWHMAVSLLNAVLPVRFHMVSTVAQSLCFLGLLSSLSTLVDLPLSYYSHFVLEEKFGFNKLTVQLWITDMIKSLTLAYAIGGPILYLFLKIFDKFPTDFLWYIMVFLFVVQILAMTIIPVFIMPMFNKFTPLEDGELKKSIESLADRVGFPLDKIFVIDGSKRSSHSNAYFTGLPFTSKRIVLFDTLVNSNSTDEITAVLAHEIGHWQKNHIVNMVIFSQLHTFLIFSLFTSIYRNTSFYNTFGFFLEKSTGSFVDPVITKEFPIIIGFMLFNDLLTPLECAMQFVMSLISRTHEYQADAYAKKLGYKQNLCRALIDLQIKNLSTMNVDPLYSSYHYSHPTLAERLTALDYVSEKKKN

Calls of active or inactive are those of the source.

Sequence of Cysteine protease ATG4B (Q9Y4P1 whole entry): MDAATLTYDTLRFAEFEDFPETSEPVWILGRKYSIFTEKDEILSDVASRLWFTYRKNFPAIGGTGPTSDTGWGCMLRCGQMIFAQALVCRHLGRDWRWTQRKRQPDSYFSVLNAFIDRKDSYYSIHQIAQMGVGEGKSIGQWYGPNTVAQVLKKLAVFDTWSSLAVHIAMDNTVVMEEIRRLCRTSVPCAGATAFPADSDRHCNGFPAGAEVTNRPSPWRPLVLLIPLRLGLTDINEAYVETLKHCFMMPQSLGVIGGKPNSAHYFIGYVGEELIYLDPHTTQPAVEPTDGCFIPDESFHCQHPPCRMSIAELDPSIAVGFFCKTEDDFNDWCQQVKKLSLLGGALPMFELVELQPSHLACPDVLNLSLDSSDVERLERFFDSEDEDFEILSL
Sequence of Phospholipase A2 (P04054 whole entry): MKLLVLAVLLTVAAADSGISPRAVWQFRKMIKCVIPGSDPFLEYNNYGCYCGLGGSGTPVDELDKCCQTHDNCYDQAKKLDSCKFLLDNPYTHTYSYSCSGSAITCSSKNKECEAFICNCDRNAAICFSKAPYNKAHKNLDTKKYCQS

For `CCN(CC(=O)N1CCc2ccccc2C1)S(=O)(=O)c1ccc2ccccc2c1`, the IC50 in experiment [1] was 4.17 µM (active); in [2] it was 23.7 µM (inactive).
In the case of `COc1cc(-c2nc(-c3ccccc3)c(-c3cccs3)[nH]2)cc(OC)c1OC`, the values for the half-maximal effective concentration (EC50) in experiment [3] and in experiment [4] were 1.21 µM (active) and > 30 µM (not active), respectively. The AC50 was 29.9 µM (active) in [5] and 50.3 µM (active) in experiment [6].
Consider `O=C1NN(c2cccc(F)c2)C(=O)/C1=C1\C(=O)Nc2ccccc21`, for which the IC50 in [7] is 199 µM (active); in experiment [8] it was > 66 µM (inactive); in experiment [9] it was < 0.4 µM (active); in experiment [10], > 66 µM (inactive). For the same compound, the AC50 in experiment [5] was 43.3 µM (active); in experiment [6], 4.9 µM (active).
Turning to `Cc1csc(CN(C)c2ncnc3ccc(-c4ccc5c(c4)OCO5)cc23)n1`, the half-maximal activity concentration (AC50) in [11] is 2.23 µM (active).
`C=C(C)C(=O)Nc1cccc(C2=NOC3(C2)C[C@H](C(N)=O)N(C(=O)C(c2ccccc2)c2ccccc2)C3)c1` (stereo partly specified): the IC50 in experiment [7] was 167 µM (active); in experiment [9], 3.12 µM (active). The results for the EC50 in [12] and in [13] were 85.9 µM (inactive) and 11.4 µM (active), respectively.
As to `O=C(NCc1ccco1)c1cc2ccc(O)cc2oc1=O`, the IC50 in experiment [14] was 14.3 µM (active); in experiment [19], > 50 µM (not active); in [20], 3.57 µM (active). Also, the EC50 in experiment [15] is 1.84 µM (active); in [16], 1.82 µM (active); in experiment [17], 5.05 µM (active); in [18], 3.28 µM (active); in [21], 7.99 µM (active); in experiment [22], 13.3 µM (active). For the same compound, the EC50 was 0.288 µM (active) in experiment [23] and > 150 µM (not active) in experiment [24].
For the compound `CC1=CC2=NC(=O)CC(C)(C(=O)N(CC(=O)NC3CCCC3)Cc3ccccc3)N2C=C1` (stereo unspecified), the AC50 in [25] was 11.5 µM (active).
Consider `O=C(Nc1c(Cl)cccc1Cl)c1cc(-c2ccco2)on1`, for which the IC50 is 6.14 µM (active) in experiment [1] and 13.2 µM (active) in [2].

For the origin of these results see ChEMBL document CHEMBL1201862, “PubChem BioAssay data set” (2004).
